GI50 and TGI data for seven molecules are collected here from PubChem BioAssay (NCI).

Structures are written as SMILES.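 Cells were grown in 96-well plates and exposed to each compound for 48 hours at five concentrations; endpoints were interpolated linearly between bracketing concentrations, or set to the highest concentration if not reached. The concentration for 50% growth inhibition is given as GI50. The concentration for full growth arrest is given as TGI.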

Some test systems named below: NCI-H226 lung; RXF 393 renal; LOX IMVI melanoma; OVCAR-8 ovarian; MALME-3M melanoma; NCI-H460 lung; OVCAR-3 ovarian; TK-10 renal; HOP-62 NSCLC; SF-539 CNS.
What all share (assay): inhibition of tumour cell growth, NCI panel, 48 h

Turning to `C=C(C)[C@@H]1CC[C@]2(C#N)CC[C@]3(C)[C@H](CC[C@@H]4[C@@]5(C)CCCNC(C)(C)[C@@H]5CC[C@]43C)[C@@H]12`, the GI50 in the test with NCI-H226 lung was 2.61 µM; in the test on RXF 393 renal, 1.7 µM; in the test with LOX IMVI melanoma, 1.67 µM; with OVCAR-8 ovarian it was 1.84 µM; in the test on MALME-3M melanoma, 1.61 µM; in the test on NCI-H460 lung, 1.88 µM. The GI50 with OVCAR-3 ovarian is 1.75 µM; with TK-10 renal, 2.04 µM; with HOP-62 NSCLC, 1.65 µM; with SF-539 CNS it was 1.67 µM. Further, the TGI is 9.79 µM in the test on NCI-H226 lung; 3.16 µM in the test on RXF 393 renal; 3.04 µM with LOX IMVI melanoma; 3.38 µM in the test with OVCAR-8 ovarian; 3.2 µM with MALME-3M melanoma; 3.54 µM in the test on NCI-H460 lung. For the same molecule, the TGI in the test on OVCAR-3 ovarian was 3.38 µM; with TK-10 renal, 4.54 µM; in the test with HOP-62 NSCLC it was 3.29 µM; in the test on SF-539 CNS, 3.11 µM.

On to `C[Si](C)(C)[C@@]1([Se]c2ccccc2)CC[C@@H]1C(=O)c1ccccc1`, for which the TGI with NCI-H226 lung, in the test on RXF 393 renal, in the test on LOX IMVI melanoma, with OVCAR-8 ovarian, in the test on MALME-3M melanoma and with NCI-H460 lung was over 100 µM in each case. The TGI in the test with OVCAR-3 ovarian, with TK-10 renal, in the test with HOP-62 NSCLC and with SF-539 CNS was over 100 µM each time.

In the case of `COc1cc(C(=O)c2c(-c3ccccc3)oc3ccccc23)cc(OC)c1O`, the GI50 in the test on NCI-H226 lung is 8.14 µM; in the test on RXF 393 renal, 1.76 µM; with LOX IMVI melanoma, 4.33 µM; in the test on OVCAR-8 ovarian, 4.8 µM; in the test on MALME-3M melanoma, 1.13 µM; in the test with NCI-H460 lung, 2.22 µM. For the same molecule, the GI50 was 1.11 µM in the test with OVCAR-3 ovarian, 20.5 µM in the test with TK-10 renal, 7.3 µM with HOP-62 NSCLC and 1.64 µM in the test on SF-539 CNS. Moreover, the TGI in the test on NCI-H226 lung came out at 37.2 µM; with RXF 393 renal, 8.95 µM; with LOX IMVI melanoma it was 21.6 µM; in the test on OVCAR-8 ovarian, 83.9 µM; with MALME-3M melanoma, 20.5 µM; in the test with NCI-H460 lung it was 10.7 µM. The TGI in the test with OVCAR-3 ovarian was 5.21 µM; in the test on TK-10 renal it was over 100 µM; in the test with HOP-62 NSCLC it was 23.4 µM; with SF-539 CNS it was 5.63 µM.

With `O=C(Nc1ccc(-c2nc3ccc(NC(=O)c4ccc(Cl)cc4)cc3[nH]2)cc1)c1ccc(Cl)cc1`, the GI50 in the test on NCI-H226 lung is 15.1 µM; with RXF 393 renal it was 0.0186 µM; in the test on LOX IMVI melanoma, 1.94 µM; with OVCAR-8 ovarian, 1.73 µM; with MALME-3M melanoma, 3.79 µM; in the test on NCI-H460 lung it was 1.79 µM. The GI50 in the test on OVCAR-3 ovarian was 3.31 µM; in the test on TK-10 renal, 2.39 µM; in the test with HOP-62 NSCLC, 2.59 µM; in the test on SF-539 CNS, 0.0709 µM. Besides, the TGI in the test with NCI-H226 lung came to 31.8 µM; with RXF 393 renal, 1.93 µM; in the test on LOX IMVI melanoma, 11.4 µM; in the test with OVCAR-8 ovarian, 6.93 µM; in the test on MALME-3M melanoma it was 11.4 µM; in the test on NCI-H460 lung, 4.03 µM. Further, the TGI in the test on OVCAR-3 ovarian was found to be 11.4 µM; in the test on TK-10 renal, 5.8 µM; in the test with HOP-62 NSCLC, 9.07 µM; in the test with SF-539 CNS, 6.22 µM.

On to `NC(=NC1C2CC3CC(C2)CC1C3)Nc1ccc(I)cc1` (stereo not given), for which the GI50 in the test on NCI-H226 lung is 5.41 µM; in the test with RXF 393 renal, 3.1 µM; in the test with LOX IMVI melanoma, 1.78 µM; in the test on OVCAR-8 ovarian it was 6.61 µM; in the test on MALME-3M melanoma, 2.09 µM; in the test with NCI-H460 lung, 3.66 µM. Moreover, the GI50 in the test on OVCAR-3 ovarian was 3.97 µM; with TK-10 renal, 2.59 µM; in the test with HOP-62 NSCLC it was 2.46 µM; in the test on SF-539 CNS, 4.16 µM. Also, the TGI worked out at 22.2 µM with NCI-H226 lung; 13.5 µM in the test on RXF 393 renal; 3.51 µM with LOX IMVI melanoma; 23.4 µM in the test with OVCAR-8 ovarian; 5.36 µM in the test with MALME-3M melanoma; 13 µM in the test on NCI-H460 lung. Besides, the TGI came to 15 µM in the test with OVCAR-3 ovarian, 8.85 µM in the test on TK-10 renal, 8.38 µM in the test on HOP-62 NSCLC and 15.5 µM in the test on SF-539 CNS.

Take `COc1cc([N+](=O)[O-])c2ncccc2c1O`: the GI50 is 2.01 µM in the test on NCI-H226 lung; 10.6 µM in the test on RXF 393 renal; 3.88 µM in the test on LOX IMVI melanoma; 8.71 µM with OVCAR-8 ovarian; 1.99 µM with MALME-3M melanoma; 2.86 µM in the test on NCI-H460 lung. The GI50 in the test on OVCAR-3 ovarian is 4.76 µM; in the test on TK-10 renal it was 10.7 µM; in the test with HOP-62 NSCLC it was 2.05 µM; with SF-539 CNS, 2.59 µM. The TGI is 6.27 µM in the test on NCI-H226 lung; 30.1 µM in the test on RXF 393 renal; 33.6 µM in the test with LOX IMVI melanoma; over 100 µM in the test on OVCAR-8 ovarian; 4.74 µM in the test with MALME-3M melanoma; over 100 µM in the test on NCI-H460 lung. The TGI came out at 37.3 µM with OVCAR-3 ovarian, 94.5 µM in the test with TK-10 renal, 4.96 µM in the test on HOP-62 NSCLC and 9.41 µM in the test with SF-539 CNS.

As for `COc1ccc(-c2nc(N)nc(-c3cc(C)ccc3O)c2Cl)cc1`, the TGI in the test with NCI-H226 lung was over 100 µM; with RXF 393 renal, 99.7 µM; with LOX IMVI melanoma, over 100 µM; in the test on OVCAR-8 ovarian, over 100 µM; with MALME-3M melanoma, over 100 µM; in the test with NCI-H460 lung, over 100 µM. The TGI in the test with OVCAR-3 ovarian is 89.8 µM; in the test with TK-10 renal, 86.4 µM; in the test on HOP-62 NSCLC, over 100 µM; in the test with SF-539 CNS, over 100 µM.
